In article PMC5216056 (Nature Communications, 2017):
“And” between values parts separate entries of the source, which are not always exact repeats. Identical values can stand only once. Like-named read-outs stand apart in the source and are kept apart here.

Tests used:
mCB1R = target: T1, mCB1R (Mus musculus, UniProt P47746); assay: biochemical; settings: for EC50: pEC50 ± SEM cAMP mCB1R; for Emax: read-out: Emax cAMP mCB1R
T1 construct: from tissue; host or cells: brain of male C57BL/6J mice

MAGL = target: T2, MAGL (Homo sapiens, UniProt Q99685); assay: Biochemical MAGL activity assay; settings: for inhibition at 10 µM: read-out: MAGL % inhibition at 10 µM ± SD
T2 construct: expressed in transfected cells; host or cells: HEK293T (transient), membrane preparation
T2 sequence (Q99685 1-303): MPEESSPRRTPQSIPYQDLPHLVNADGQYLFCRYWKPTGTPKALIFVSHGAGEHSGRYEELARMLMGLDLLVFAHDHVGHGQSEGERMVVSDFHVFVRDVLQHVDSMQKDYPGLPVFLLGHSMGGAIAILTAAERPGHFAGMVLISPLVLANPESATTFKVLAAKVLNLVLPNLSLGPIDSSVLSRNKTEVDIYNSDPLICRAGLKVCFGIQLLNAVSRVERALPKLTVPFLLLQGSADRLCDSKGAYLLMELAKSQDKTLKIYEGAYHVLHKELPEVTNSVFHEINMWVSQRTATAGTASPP
Procedure: Cell culture and membrane preparation were performed as previously described. HEK293T cells (source: Dutch Cancer Institute) were grown in DMEM with stable glutamine and phenolred (PAA), 10% New Born Calf serum, penicillin and streptomycin. Cells were passaged every 2–3 days by resuspending in medium and seeding them to appropriate confluence. Membranes were prepared from transiently transfected HEK293T cells. One day prior to transfection 10^7 cells were seeded in a 15 cm petri dish. Cells were transfected by the addition of a 3:1 mixture of polyethyleneimine (60 μg) and plasmid DNA (20 μg) in 2 ml serum-free medium. The medium was refreshed after 24 h, and after 72 h the cells were harvested by suspending them in 20 ml medium. The suspension was centrifuged for 10 min at 1000, rpm, and the supernatant was removed. The cell pellet was stored at −80 °C until use. Cell pellets were thawed on ice and suspended in lysis buffer A (20 mM HEPES, 2 mM DTT, 0.25 M sucrose, 1 mM MgCl2, […] Benzonase). The suspension was homogenized by polytrone (3 × 7 s) and incubated for 30 min on ice. The suspension was subjected to ultracentrifugation (100,000 × g, 30 min, 4 °C, Beckman Coulter, Type Ti70 rotor) to yield the cytosolic fraction in the supernatant and the membrane fraction as a pellet. The pellet was resuspended in lysis buffer B (20 mM HEPES, 2 mM DTT). The protein concentration was determined with Quick Start Bradford assay (Biorad). The protein fractions were diluted to a total protein concentration of 1 mg ml^−1 and stored in small aliquots at −80 °C until use.
Percentage of inhibition of reference ligands was determined in comparison with an untreated control. […] Fluorescence was measured in 5 min intervals for 60 min.

[1] = test system: AEA cellular uptake in HMC-1 cells; assay: cells; format: cell-based, human
Rat recombinant TRPA1 = target: T3, Rat recombinant TRPA1 (Rattus norvegicus, UniProt Q6RI86); assay: cell-based; format: cell-based; settings: for EC50: read-out: TRPA1 Potency EC50; for IC50: vs AITC 100μM, 5 min pre-incubation, read-out: TRPA1 IC50 for antagonism or desensitization
T3 construct: expressed in transfected cells

mCB2R = mCB2R (Mus musculus, UniProt P47936); assay: biochemical; format: binding; set-up: from tissue; host or cells: spleen of male C57BL/6J mice
hCB2R = hCB2R (Homo sapiens, UniProt P34972); assay: cell-based; format: cell-based; set-up: expressed in transfected cells; host or cells: Flp-In-293 (Invitrogen #R750-07), pcDNA5/FRT
hGPR55 = target: T4, hGPR55 (Homo sapiens, UniProt Q9Y2T6); assay: cell-based
T4 construct: host or cells: CHO-K1 (PathHunter hGPR55_bgal)

alpha 2A (h) = target: T5, alpha 2A (h) (Homo sapiens, UniProt P08913); assay: CEREP panel; format: binding; settings: for inhibition at 10 µM: read-out: % inhibition alpha 2A (h)
T5 construct: CEREP
T5 sequence (P08913 1-465): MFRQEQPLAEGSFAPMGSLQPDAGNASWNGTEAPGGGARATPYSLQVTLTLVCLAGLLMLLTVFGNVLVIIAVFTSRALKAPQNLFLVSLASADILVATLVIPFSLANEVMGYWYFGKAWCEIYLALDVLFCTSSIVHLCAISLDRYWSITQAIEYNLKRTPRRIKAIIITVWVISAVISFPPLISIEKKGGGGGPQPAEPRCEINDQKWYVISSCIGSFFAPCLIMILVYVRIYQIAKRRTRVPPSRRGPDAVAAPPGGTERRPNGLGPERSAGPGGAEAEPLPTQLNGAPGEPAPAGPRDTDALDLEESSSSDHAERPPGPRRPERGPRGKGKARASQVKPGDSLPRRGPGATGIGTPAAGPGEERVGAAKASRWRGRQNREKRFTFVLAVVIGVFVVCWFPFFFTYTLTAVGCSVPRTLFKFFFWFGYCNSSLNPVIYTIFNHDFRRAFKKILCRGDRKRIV

PPARα (h) = target: T6, PPARα (h) (Homo sapiens, UniProt Q07869); assay: CEREP panel; format: binding; settings: read-out: % inhibition PPARα (h)
T6 construct: CEREP (contract assay)
T6 sequence (Q07869 1-468): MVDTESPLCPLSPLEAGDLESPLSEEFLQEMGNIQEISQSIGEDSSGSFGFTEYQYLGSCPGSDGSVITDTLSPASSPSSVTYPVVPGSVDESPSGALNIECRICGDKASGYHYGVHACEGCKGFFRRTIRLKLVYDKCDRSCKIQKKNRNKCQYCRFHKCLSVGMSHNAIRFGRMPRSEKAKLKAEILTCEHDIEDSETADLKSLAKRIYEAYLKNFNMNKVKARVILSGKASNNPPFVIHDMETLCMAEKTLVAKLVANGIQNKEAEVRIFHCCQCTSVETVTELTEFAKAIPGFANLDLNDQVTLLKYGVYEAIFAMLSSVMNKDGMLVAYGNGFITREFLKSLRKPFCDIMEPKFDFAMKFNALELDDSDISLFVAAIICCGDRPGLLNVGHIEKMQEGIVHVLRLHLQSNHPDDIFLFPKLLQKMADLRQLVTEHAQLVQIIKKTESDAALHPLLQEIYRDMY

AR (h) = assay: CEREP panel; format: binding, human; settings: 10 µM
[2] = test system: Ca2+ channel (L, diltiazem site); assay: CEREP panel; format: binding; settings: 10 µM
[3] = β-arrestin recruitment, read-out: GPR55 pEC50 (± SEM) (converted)

T4 sequence (Q9Y2T6 whole entry): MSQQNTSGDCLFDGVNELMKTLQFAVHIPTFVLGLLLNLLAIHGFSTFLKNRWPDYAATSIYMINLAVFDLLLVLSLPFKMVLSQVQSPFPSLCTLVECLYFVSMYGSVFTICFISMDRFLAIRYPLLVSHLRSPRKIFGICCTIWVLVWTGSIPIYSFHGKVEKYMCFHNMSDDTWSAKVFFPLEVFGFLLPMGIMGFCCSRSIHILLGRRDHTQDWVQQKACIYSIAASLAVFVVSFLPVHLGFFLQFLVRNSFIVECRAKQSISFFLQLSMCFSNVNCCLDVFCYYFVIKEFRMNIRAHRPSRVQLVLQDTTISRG
T3 sequence (Q6RI86 whole entry): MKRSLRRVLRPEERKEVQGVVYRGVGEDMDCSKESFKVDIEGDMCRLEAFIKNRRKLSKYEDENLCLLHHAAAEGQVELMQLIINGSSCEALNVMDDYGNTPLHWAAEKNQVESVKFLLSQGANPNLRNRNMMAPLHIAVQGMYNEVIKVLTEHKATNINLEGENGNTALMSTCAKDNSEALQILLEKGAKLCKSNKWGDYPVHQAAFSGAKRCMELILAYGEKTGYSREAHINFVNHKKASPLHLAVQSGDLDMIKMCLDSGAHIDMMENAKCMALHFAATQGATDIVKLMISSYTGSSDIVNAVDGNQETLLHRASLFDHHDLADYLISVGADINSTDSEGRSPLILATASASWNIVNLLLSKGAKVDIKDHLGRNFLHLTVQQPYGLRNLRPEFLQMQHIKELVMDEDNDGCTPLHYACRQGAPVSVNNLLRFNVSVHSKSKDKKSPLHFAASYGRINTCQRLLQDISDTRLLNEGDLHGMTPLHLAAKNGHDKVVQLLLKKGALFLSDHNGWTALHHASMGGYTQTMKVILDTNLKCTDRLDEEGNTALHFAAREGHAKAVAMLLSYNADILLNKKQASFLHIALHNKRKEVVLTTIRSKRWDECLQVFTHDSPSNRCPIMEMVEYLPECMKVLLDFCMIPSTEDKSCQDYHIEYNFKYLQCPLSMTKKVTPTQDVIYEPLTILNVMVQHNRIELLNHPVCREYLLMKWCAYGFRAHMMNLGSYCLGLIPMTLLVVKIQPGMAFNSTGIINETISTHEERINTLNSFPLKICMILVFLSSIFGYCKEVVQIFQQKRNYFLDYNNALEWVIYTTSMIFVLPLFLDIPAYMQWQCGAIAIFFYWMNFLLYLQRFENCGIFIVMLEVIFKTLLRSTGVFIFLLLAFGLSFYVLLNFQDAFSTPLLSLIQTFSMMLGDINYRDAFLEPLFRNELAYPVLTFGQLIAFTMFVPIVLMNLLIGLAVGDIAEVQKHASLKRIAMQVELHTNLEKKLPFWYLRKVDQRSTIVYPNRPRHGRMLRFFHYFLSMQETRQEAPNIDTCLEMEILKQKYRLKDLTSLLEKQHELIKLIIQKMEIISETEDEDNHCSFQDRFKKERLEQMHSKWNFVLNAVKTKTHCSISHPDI
T1 sequence (P47746 whole entry): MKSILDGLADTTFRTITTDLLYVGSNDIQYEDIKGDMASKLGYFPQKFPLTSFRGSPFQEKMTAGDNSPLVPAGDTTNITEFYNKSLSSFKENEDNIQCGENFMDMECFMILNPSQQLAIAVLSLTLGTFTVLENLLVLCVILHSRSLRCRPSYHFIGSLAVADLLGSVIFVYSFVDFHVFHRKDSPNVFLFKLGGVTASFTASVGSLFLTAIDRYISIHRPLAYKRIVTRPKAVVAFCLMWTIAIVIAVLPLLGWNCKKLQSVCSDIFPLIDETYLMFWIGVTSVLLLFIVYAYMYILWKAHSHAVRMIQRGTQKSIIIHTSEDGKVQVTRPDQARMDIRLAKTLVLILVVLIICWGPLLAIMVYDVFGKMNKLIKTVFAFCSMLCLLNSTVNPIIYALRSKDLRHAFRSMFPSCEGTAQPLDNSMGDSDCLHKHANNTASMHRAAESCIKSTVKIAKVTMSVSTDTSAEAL
Chain of hCB2R (P34972 whole entry): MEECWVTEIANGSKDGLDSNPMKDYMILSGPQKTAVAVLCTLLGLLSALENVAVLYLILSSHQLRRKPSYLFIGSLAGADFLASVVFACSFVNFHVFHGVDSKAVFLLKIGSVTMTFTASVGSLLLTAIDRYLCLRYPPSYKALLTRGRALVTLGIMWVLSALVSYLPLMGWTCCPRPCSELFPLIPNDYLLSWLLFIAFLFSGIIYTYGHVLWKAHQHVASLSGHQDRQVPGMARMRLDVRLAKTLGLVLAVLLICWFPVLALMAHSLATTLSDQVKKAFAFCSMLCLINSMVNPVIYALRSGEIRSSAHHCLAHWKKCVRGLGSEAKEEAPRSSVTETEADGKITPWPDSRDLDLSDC
Chain of mCB2R (P47936 whole entry): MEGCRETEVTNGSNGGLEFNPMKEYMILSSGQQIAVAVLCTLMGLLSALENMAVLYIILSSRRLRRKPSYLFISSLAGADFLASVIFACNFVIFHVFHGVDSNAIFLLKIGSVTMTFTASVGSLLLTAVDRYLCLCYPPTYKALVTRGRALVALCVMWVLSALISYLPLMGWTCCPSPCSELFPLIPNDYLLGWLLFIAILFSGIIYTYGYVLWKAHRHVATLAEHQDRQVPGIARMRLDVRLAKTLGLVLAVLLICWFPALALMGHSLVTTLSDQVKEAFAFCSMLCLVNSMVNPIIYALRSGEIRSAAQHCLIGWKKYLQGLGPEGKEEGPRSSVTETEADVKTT

With `CN1CCCC[C@@H]1Cn1cc(C(=O)c2cc([N+](=O)[O-])ccc2I)c2ccccc21` [(R)-AM1241] the “Emax cAMP mCB1R” value (mCB1R) was 32, the “pEC50 ± SEM cAMP mCB1R” value (mCB1R; mouse brain) was 5.08 ± 0.16 and the “MAGL % inhibition at 10 µM ± SD” value (MAGL) was -2 ± 18%. The IC50 ([1]; read-out: AEA reuptake IC50 (95% CI) HMC-1 cells, FAAH-deficient cells) was > 5 µM, the “TRPA1 Efficacy (%AITC 100μM)” value (Rat recombinant TRPA1) was 19.8% and the EC50 (Rat recombinant TRPA1) was 19.5 µM. For the same compound, the IC50 (Rat recombinant TRPA1) was > 50 µM, the “CB2R Selectivity (binding, mouse)” value (mCB2R; 10^(pKi CB2R-pKi CB1R)) was 17 fold and the “pKi ± SEM mCB2R” value (mCB2R; mouse spleen membranes) was 7.59 ± 0.11. For the same compound, the “pEC50 ± SEM GIRK hCB2R” value (hCB2R) was < 5 and the “Emax ± SEM GIRK hCB2R” value (hCB2R; normalized to CP55940) was 47 ± 13%.
With `CCCCCCC(C)(C)c1cc(OC)c([C@@H]2C=C(CO)[C@@H]3C[C@H]2C3(C)C)c(OC)c1` [HU308] the EC50 (mCB1R; mouse brain) was > 10000 nM, the Emax (mCB1R) was 10% and the inhibition at 10 µM (MAGL) was 7 ± 13%. The EC50 (hGPR55) was > 10 µM, the Emax at 10 µM (hGPR55; read-out: GPR55 Emax ± SEM (%) or % effect at 10 µM) was -6 ± 5% and the IC50 ([1]; Homo sapiens, HMC1, read-out: AEA reuptake IC50 (95% CI) HMC-1 cells) was > 5 µM. The “TRPA1 Efficacy (%AITC 100μM)” value (Rat recombinant TRPA1) was 43.1%, the EC50 (Rat recombinant TRPA1) was 18.5 µM and the IC50 (Rat recombinant TRPA1) was > 100 µM. For the same compound, the inhibition at 10 µM (alpha 2A (h)) was -6%, the inhibition at 10 µM (PPARα (h)) was -21% and the Ki (mCB2R) was 0.0708 µM. The Emax (hCB2R; AtT20, read-out: Emax ± SEM GIRK hCB2R) was 82 ± 6%.
With `Cc1c(C(=O)NN2CCCCC2)nn(-c2ccc(Cl)cc2Cl)c1-c1ccc(I)cc1` [AM251] the “MAGL % inhibition at 10 µM ± SD” value (MAGL) was 0 ± 16%, the “GPR55 pEC50 (± SEM)” value (hGPR55) was 5.49±0.09 and the “GPR55 Emax ± SEM (%) or % effect at 10 µM” value (hGPR55; β-arrestin recruitment) was 82±9%. For the same compound, the “TRPA1 Efficacy (%AITC 100μM)” value (Rat recombinant TRPA1) was 44.4% and the “% inhibition alpha 2A (h)” value (alpha 2A (h); 10 µM) was 30%.
In the case of `CCCCCCC(C)(C)c1ccc([C@@H]2C[C@H](O)CC[C@H]2CCCO)c(O)c1` [CP55940], the EC50 (mCB1R) is reported as 0.00603 nM, the Emax (mCB1R) is reported as 100% and the inhibition at 10 µM (MAGL) is reported as 5 ± 16%. For the same compound, the EC50 (hGPR55; [3]) was > 10 µM, the inhibition at 10 µM (alpha 2A (h); 10 µM) was 23% and the “% inhibition AR (h)” value (AR (h)) was -28%. The “% inhibition Ca2+ channel (L, diltiazem site)” value [2] was -7% and the Ki (mCB2R; mouse spleen membranes, read-out: pKi ± SEM mCB2R (converted)) was 0.000603 µM.
In the case of `Cc1c(C(=O)NN2CCCCC2)nn(-c2ccc(Cl)cc2Cl)c1-c1ccc(Cl)cc1` [SR141716A], the inhibition at 10 µM (MAGL) is reported as 4 ± 18%, the IC50 ([1]; Homo sapiens, HMC1, read-out: AEA reuptake IC50 (95% CI) HMC-1 cells, FAAH-deficient cells) is reported as 3.5 µM and the “TRPA1 Efficacy (%AITC 100μM)” value (Rat recombinant TRPA1) is reported as 67.3% and 67 ± 1%. The EC50 (Rat recombinant TRPA1) was 1.9 µM, the IC50 (Rat recombinant TRPA1) was 12.5 µM and the “% inhibition AR (h)” value (AR (h)) was 4%. It also gave an inhibition at 10 µM (PPARα (h); 10 µM) of -5%.
With `CCCCC/C=C\C/C=C\C/C=C\C/C=C\CCCC(=O)NCCO` [Anandamide, N-arachidonoylethanolamine] the Emax (mCB1R) was < 70%, the inhibition at 10 µM (MAGL) was -2 ± 19% and the EC50 (hGPR55; [3]) was > 10 µM. The Ki (mCB2R) was 0.347 µM and the Emax (hCB2R; AtT20; read-out: Emax ± SEM GIRK hCB2R) was 51 ± 5%.
